The results in this text go back to patent US20090170813A1, “Hypophosphorous Acid Derivatives and their Therapeutical Applications” (priority 2005, published 2009).

This assay concerns the target T1, rat mGlu4 (Rattus norvegicus, UniProt P31423).
T1 construct: expressed in transfected cells; host or cells: HEK293
Kind of assay: Agonist activity, [3H]phosphatidylinositol accumulation in HEK293 cells transfected with rat mGlu4 and Gqi9. Type of assay: cell-based. Particulars: for EC50: Table 2, n in brackets, read-out: mGlu4 EC50 μM (n). The method, then: Agonist activity of the compounds was tested on HEK293 cells transiently transfected with rat mGlu4 expressing plasmid pRKG4 and chimeric G-protein Gqi9 by electroporation, as described by Gomeza, J. et al, Mol. Pharmacol; 1996, 50, 923-930.
Cells were plated in 96-well culture plates and labeled overnight with [^3H]myoinositol. The day after, cells were washed three times with Krebs buffer, incubated for 10 min with LiCl 5 mM, and then incubated for 30 min in the absence (basal) or in the presence of the indicated compounds at 1 nM up to 1000 μM. The total amount of [^3H]phosphatidylinositol accumulated in the cells was determined after Dowex purification as previously by Goudet C, et al, Prod. Natl. Acad. Sci. USA 2004, 101, 378-383.
The response dosis curves were adjusted by using equatrier y=[(Ymax−ymin)/(1+(x/EC50)^n)]+ymin where EC50 is the concentration necessary for obtaining half of the maximal effect and n is Hill coefficient.

T1 sequence (P31423 33-912): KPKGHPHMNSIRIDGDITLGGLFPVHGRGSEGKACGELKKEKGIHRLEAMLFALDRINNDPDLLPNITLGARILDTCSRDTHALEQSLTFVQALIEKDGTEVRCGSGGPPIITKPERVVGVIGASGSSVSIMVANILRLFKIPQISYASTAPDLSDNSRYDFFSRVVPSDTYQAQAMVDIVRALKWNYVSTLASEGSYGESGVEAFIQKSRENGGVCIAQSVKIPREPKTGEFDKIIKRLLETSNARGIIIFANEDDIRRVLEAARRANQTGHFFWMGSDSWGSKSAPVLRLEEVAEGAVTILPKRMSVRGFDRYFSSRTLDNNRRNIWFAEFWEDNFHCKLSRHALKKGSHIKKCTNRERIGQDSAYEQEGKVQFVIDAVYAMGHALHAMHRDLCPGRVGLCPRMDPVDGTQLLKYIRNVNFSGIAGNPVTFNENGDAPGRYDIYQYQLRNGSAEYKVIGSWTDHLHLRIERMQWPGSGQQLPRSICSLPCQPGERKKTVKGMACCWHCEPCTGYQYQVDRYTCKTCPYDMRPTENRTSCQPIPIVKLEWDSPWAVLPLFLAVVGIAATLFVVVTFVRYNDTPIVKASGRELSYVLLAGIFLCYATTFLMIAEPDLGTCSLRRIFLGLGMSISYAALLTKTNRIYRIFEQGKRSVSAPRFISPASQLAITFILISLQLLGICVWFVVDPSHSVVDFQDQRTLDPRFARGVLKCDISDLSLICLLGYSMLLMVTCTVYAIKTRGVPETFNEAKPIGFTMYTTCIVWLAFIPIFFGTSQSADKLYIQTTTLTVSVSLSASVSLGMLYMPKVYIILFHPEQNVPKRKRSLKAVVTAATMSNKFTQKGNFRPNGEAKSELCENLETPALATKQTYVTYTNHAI

Take `N[C@@H](CCP(=O)(O)C(O)c1ccccc1C(=O)O)C(=O)O` (stereo partly drawn) [Compound 22, (3S)-2-[(((3-amino-3-carboxy)propyl)(hydroxy)phosphinyl)-hydroxymethyl]benzoic Acid]: the “mGlu4 activity at 100 μM” value is “inactive at 100 μM”.
As to `N[C@@H](CCP(=O)(O)C(O)c1ccc(C(=O)O)cc1)C(=O)O` (stereo partly drawn) [Compound 40, (3S)-4-[(((3-amino-3-carboxy)propyl)(hydroxy)phosphinyl)-hydroxymethyl]benzoic Acid], the EC50 (commonly the concentration at which the effect is half-maximal) stood at 31.8 µM.
For `N[C@@H](CCP(=O)(O)CCP(=O)(O)O)C(=O)O` [Compound 42, (3S)-3-[((3-Amino-3-carboxy)propyl)(hydroxy)phosphinyl]ethylphosphonate], the “mGlu4 % max at 100 μM” value is 40% max at 100 μM (1).
In the case of `N[C@@H](CCP(=O)(O)C(O)c1cc([N+](=O)[O-])ccc1O)C(=O)O` (stereo partly drawn) [Compound 82, (3S)-3-[(((3-amino-3-carboxy)propyl)(hydroxy)phosphinyl)-hydroxymethyl] 4-hydroxy-nitrobenzene], the EC50 came out at 1.17 µM.
As to `N[C@@H](CCP(=O)(O)C(O)c1c(F)c(F)c(F)c(F)c1F)C(=O)O` (stereo partly drawn) [Compound 80, (3S)-1-[(((3-amino-3-carboxy)propyl)(hydroxy)phosphinyl)-hydroxymethyl] 2,3,4,5,6-pentafluorobenzene], the EC50 came to 5.19 µM.
For the compound `N[C@@H](CCP(=O)(O)C(O)c1ccc([N+](=O)[O-])c(C(F)(F)F)c1)C(=O)O` (stereo partly drawn) [Compound 94, (3S)-4-[(((3-amino-3-carboxy)propyl)(hydroxy)phosphinyl)-hydroxymethyl] 2-trifluoro methyl-1-nitrobenzene], the EC50 turned out to be 0.305 µM.
Take `NC(CCP(=O)(O)C(CC(=O)O)C(=O)O)C(=O)O` (stereo not shown) [Compound 11]: the EC50 turned out to be 59 µM.
As for `N[C@@H](CCP(=O)(O)C(O)c1c([N+](=O)[O-])cccc1[N+](=O)[O-])C(=O)O` (stereo partly drawn) [Compound 90, (3S)-2-[(((3-amino-3-carboxy)propyl)(hydroxy)phosphinyl)-hydroxymethyl] 1,3-dinitro benzene], the EC50 was determined as 1.96 µM.
Regarding `N[C@@H](CCP(=O)(O)C(O)c1ccc([N+](=O)[O-])s1)C(=O)O` (stereo partly drawn) [Compound 86, (3S)-2-[(((3-amino-3-carboxy)propyl)(hydroxy)phosphinyl)-hydroxymethyl] 5-nitrothiophene], the EC50 came out at 0.31 µM.
Turning to `N[C@@H](CCP(=O)(O)C(O)c1ccc([N+](=O)[O-])cc1)C(=O)O` (stereo partly drawn) [Compound 72, (3S)-4-[(((3-amino-3-carboxy)propyl)(hydroxy)phosphinyl)-hydroxymethyl] nitrobenzene], the concentration giving a half-maximal response (EC50) worked out at 0.93 µM.
Same read-out and setting: under `N[C@@H](CCP(=O)(O)C(O)c1ccc(C(F)(F)F)cc1)C(=O)O` (stereo partly shown) [Compound 54] stands 22.2 µM.
Regarding `N[C@@H](CCP(=O)(O)CCC(=O)O)C(=O)O` [Compound 7, (3S)-3-[((3-Amino-3-carboxy)propyl)(hydroxy)phosphinyl]propanoic Acid], the EC50 came out at 6.4 µM.
For the compound `N[C@@H](CCP(=O)(O)CCCC(=O)O)C(=O)O` [Compound 48, (3S)-4-[((3-Amino-3-carboxy)propyl)(hydroxy)phosphinyl]butanoic Acid], the “mGlu4 % max at 100 μM” value was 80% max at 100 μM (1).
Take `N[C@@H](CCP(=O)(O)C(O)c1ccc(O)c([N+](=O)[O-])c1)C(=O)O` (stereo partly drawn) [Compound 62, (3S)-3-[(((3-amino-3-carboxy)propyl)(hydroxy)phosphinyl)-hydroxymethyl]-6-hydroxy-1-nitrobenzene]: the EC50 was 2 µM.
Turning to `N[C@@H](CCP(=O)(O)CC(CC(=O)O)C(=O)O)C(=O)O` (stereo partly drawn) [Compound 19, (3S)-2-[(((3-amino-3-carboxy)propyl)(hydroxy)phosphinyl)-methyl]butane-1,4-dioic Acid], the concentration for a half-maximal effect (EC50) was 28.7 µM.
For the compound `Cc1ccc(C(O)P(=O)(O)CC[C@H](N)C(=O)O)cc1[N+](=O)[O-]` (stereo partly shown) [Compound 52], the EC50 amounted to 1.69 µM.
As for `CS(=O)(=O)c1ccc(C(O)P(=O)(O)CC[C@H](N)C(=O)O)cc1` (stereo partly drawn) [Compound 74, (3S)-4-[(((3-amino-3-carboxy)propyl)(hydroxy)phosphinyl)-hydroxymethyl]methylsulphonylbenzene], the EC50 was > 100 µM.
Regarding `COc1cc(C(O)P(=O)(O)CC[C@H](N)C(=O)O)cc([N+](=O)[O-])c1O` (stereo partly drawn) [Compound 64, (3S)-3-[(((3-amino-3-carboxy)propyl)(hydroxy)phosphinyl)-hydroxymethyl]-5-methoxy-6-hydroxy-1-nitrobenzene], the EC50 was found to be 1.5 µM.
For `N[C@@H](CCP(=O)(O)C(O)c1ccc([N+](=O)[O-])o1)C(=O)O` (stereo partly drawn) [Compound 84, (3S)-2-[(((3-amino-3-carboxy)propyl)(hydroxy)phosphinyl)-hydroxymethyl] 5-nitrofuran], the EC50 is 0.087 µM.
With `N[C@@H](CCP(=O)(O)C(O)c1ccc(N2CCOCC2)c([N+](=O)[O-])c1)C(=O)O` (stereo partly drawn) [Compound 68, (3S)-3-[(((3-amino-3-carboxy)propyl)(hydroxy)phosphinyl)-hydroxymethyl]-6-morpholino-1-nitro benzene], the concentration giving a half-maximal response (EC50) was > 100 µM.
Turning to `NC(CP(=O)(O)CCC(=O)O)C(=O)O` (stereo not shown) [Compound 14], the “mGlu4 activity at 100 μM” value is “inactive at 100 μM (1) . . ”.
Turning to `COc1ccc(C(O)P(=O)(O)CC[C@H](N)C(=O)O)cc1[N+](=O)[O-]` (stereo partly drawn) [Compound 58, (3S)-3-[(((3-amino-3-carboxy)propyl)(hydroxy)phosphinyl)-hydroxymethyl] 3-nitro-4-methoxybenzene], the EC50 is 2.89 µM.
With `N[C@@H](CCP(=O)(O)C(O)c1ccc(C(F)(F)F)o1)C(=O)O` (stereo partly drawn) [Compound 88, (3S)-2-[(((3-amino-3-carboxy)propyl)(hydroxy)phosphinyl)-hydroxymethyl] 5-trifluoromethylfuran], the EC50 was 1.98 µM.
As for `N[C@@H](CCP(=O)(O)C(CC(=O)O)C(F)(F)F)C(=O)O` (stereo partly drawn) [Compound 28, (3S)-3-[((3-amino-3-carboxy)propyl)(hydroxy)phosphinyl]-3-trifluoromethylpropanoic Acid], the “mGlu4 % max at 100 μM” value is listed as 60% max at 100 μM (1).
Take `N[C@@H](CCP(=O)(O)C(O)c1ccc(F)c([N+](=O)[O-])c1)C(=O)O` (stereo partly shown) [Compound 50]: the half-maximal effective concentration (EC50) amounted to 1.02 µM.
Turning to `N[C@@H](CCP(=O)(O)C(CC(=O)O)CC(=O)O)C(=O)O` [Compound 16, (3S)-3-[(((3-amino-3-carboxy)propyl)(hydroxy)phosphinyl)-methyl]pentane-1,5-dioic Acid], the “mGlu4 % max at 100 μM” value was 10% max at 100 μM (1).
Turning to `N[C@@H](CCP(=O)(O)C(O)c1ccc(C(F)(F)F)c([N+](=O)[O-])c1)C(=O)O` (stereo partly shown) [Compound 38], the concentration giving a half-maximal response (EC50) is 0.28 µM.
Take `N[C@@H](CCP(=O)(O)C1COC(=O)C1)C(=O)O` (stereo partly drawn) [Compound 36, (3S)-4-[((3-amino-3-carboxy)propyl)(hydroxy)phosphinyl]furanone]: the EC50 worked out at 11.5 µM. Moreover, the “mGlu4 agonist character (partial)” value (Table 2, remark beside EC50) is listed as “partial”.
As for `NC(CCP(=O)(O)CCCCC(=O)O)C(=O)O` (stereo not shown) [Compound 60, 5-[((3-Amino-3-carboxy)propyl)(hydroxy)phosphinyl]pentanoic Acid], the “mGlu4 activity at 100 μM” value was “inactive at 100 μM (1)”.
With `N[C@@H](CCP(=O)(O)C(O)c1ccc([N+](=O)[O-])cc1[N+](=O)[O-])C(=O)O` (stereo partly drawn) [Compound 70, (3S)-4-[(((3-amino-3-carboy)propyl)(hydroxy)phosphinyl)-hydroxymethyl]-1,3-dinitrobenzene], the EC50 came to 1 µM.
